Results reported in the supplement of paper PMC13380429.
± gives the standard deviation of the averaged measurements.

Assays:
Details in all cases: 72 h
Calu-3 [1] = assay: relative viability EC50 (midpoint between 100% and the lowest measured viability); higher = less toxic
HepG2 [2] = assay: as above
U2OS [3] = assay: as above
Caco-2 [4] = assay: as above
Vero E6 [5] = assay: as above
Calu-3 [6] = assay: drug sensitivity score (DSS) for viability; higher = more toxic; extreme values may be limits of the assay
HepG2 [7] = assay: as above
U2OS [8] = assay: as above
Caco-2 [9] = assay: as above
Vero E6 [10] = assay: as above
Calu-3 [11] = assay: cell viability relative to DMSO; higher = less toxic
HepG2 [12] = assay: as above
U2OS [13] = assay: as above
Caco-2 [14] = assay: as above
Vero E6 [15] = assay: as above

Structure (SMILES)	relative viability EC50 (Calu-3 [1]) [µM]	relative viability EC50 (HepG2 [2]) [µM]	relative viability EC50 (U2OS [3]) [µM]	relative viability EC50 (Caco-2 [4]) [µM]	relative viability EC50 (Vero E6 [5]) [µM]	drug sensitivity score (Calu-3 [6])	drug sensitivity score (HepG2 [7])	drug sensitivity score (U2OS [8])	drug sensitivity score (Caco-2 [9])	drug sensitivity score (Vero E6 [10])	cell viability (Calu-3 [11]; 1 nM) [%]	cell viability (Calu-3 [11]; 10 nM) [%]	cell viability (Calu-3 [11]; 100 nM) [%]	cell viability (Calu-3 [11]; 1000 nM) [%]	cell viability (Calu-3 [11]; 10000 nM) [%]	cell viability (HepG2 [12]; 1 nM) [%]	cell viability (HepG2 [12]; 10 nM) [%]	cell viability (HepG2 [12]; 100 nM) [%]	cell viability (HepG2 [12]; 1000 nM) [%]	cell viability (HepG2 [12]; 10000 nM) [%]	cell viability (U2OS [13]; 1 nM) [%]	cell viability (U2OS [13]; 10 nM) [%]	cell viability (U2OS [13]; 100 nM) [%]	cell viability (U2OS [13]; 1000 nM) [%]	cell viability (U2OS [13]; 10000 nM) [%]	cell viability (Caco-2 [14]; 1 nM) [%]	cell viability (Caco-2 [14]; 10 nM) [%]	cell viability (Caco-2 [14]; 100 nM) [%]	cell viability (Caco-2 [14]; 1000 nM) [%]	cell viability (Caco-2 [14]; 10000 nM) [%]	cell viability (Vero E6 [15]; 1 nM) [%]	cell viability (Vero E6 [15]; 10 nM) [%]	cell viability (Vero E6 [15]; 100 nM) [%]	cell viability (Vero E6 [15]; 1000 nM) [%]	cell viability (Vero E6 [15]; 10000 nM) [%]
CCN1CCCC1=O [1-ethyl-2-pyrrolidone]	> 10	> 10	> 10	> 10	> 10	0	0	0	0	0	97.9	104	104	98.6	104	99.1	99.1	94	99.9	97.2	95.9	98.4	104	95.5	102	93.6	99.6	99.4	88	95.2	103	103	97	97.9	95.3
COc1cc(SC)ccc1C(=O)N1CCC(Cc2ccccc2)CC1 [JX-401]	> 10	> 10		> 10	> 10	0	0		0	0	99.4	114	97.5	103	97.3	104	110	99.9	97.7	106						95.5	95.9	90.9	99	94.5	101	98.6	99.8	97.6	94.8
Nc1nc(O)c2ncn(CCC(CO)CO)c2n1 [penciclovir]	> 10	> 10	> 10	> 10	> 10	0	0	0	0	0	102	90.8	92	94.1	99.5	89.8	94.3	101	94.6	102	99.3	95.9	93.9	101	104	98.7	109	102	103	102	100	94.3	90	95.1	102
Nc1ncnc2c1ncn2[C@@H]1O[C@@H]2COP(=O)(O)O[C@H]2[C@H]1O [cyclic-AMP]	> 10	> 10	> 10	> 10	> 10	0	0	0	0	0	100	107	103	111	95.5	97.7	100	89.5	102	92.2	103	103	96.1	102	99.6	89.8	93	94.5	93.5	95.9	102	98.6	93.9	102	98.9
O=C(O)CNC(=O)c1c(O)c2ccccc2n(Cc2ccccc2)c1=O [IOX2]	> 10	> 10	> 10	> 10	> 10	0	0	0	0	0	87	88	85.8	96	87.4	108	106	108	93.9	106	96.2	102	94.8	98.5	95.6	95.4	97.1	92	102	93.2	104	99.7	102	106	98.4
CC(C)COC(=O)c1ccc(N)cc1 [isobutamben]	> 10	> 10	> 10	> 10	> 10	0	0.7	0	0	0	87.8	100	103	111	102	98.7	103	94.9	88	90.2	104	96.4	102	94.1	99.9	100	95.9	102	93.1	98.8	102	106	97.9	98.6	96.2
CCOc1ccccc1OCC1CNCCO1 (stereo not drawn) [viloxazine]	> 10	> 10	> 10	> 10	> 10	0	0	0	0	0	86.6	98.2	98.6	100	111	116	91.7	111	94.7	96.6	94.8	98.5	102	104	105	111	99.5	113	118	95.6	96.4	89.4	94.1	92.2	102
Cc1ccccc1/N=N/c1ccc(NC(=O)c2ccnn2C)c(C)c1	> 10	> 10	> 10	> 10	> 10	0	0	0	0	0	112	100	97.6	99.3	90.9	107	102	104	91	97.6	96.7	102	100	102	93.2	90.6	94	97.9	93.8	91.5	97.3	92.1	95.2	94.1	108
O=C(CCc1ccc(O)cc1)c1c(O)cc(O)cc1O [phloretin]	> 10	> 10	> 10	> 10	> 10	0	0	0	0	0	104	93.2	98.7	98	91.3	107	98.3	94.2	99.1	99.4	95.8	100	103	96.8	101	92.1	101	97.5	101	98.6	105	102	99.9	103	95.1
O=c1oc2c(O)c(O)cc3c(=O)oc4c(O)c(O)cc1c4c23 [ellagic-acid]	> 10	> 10	> 10	> 10	> 10	0	0	0	0	0	98.4	95.9	99.4	100	93.2	93.6	97	97.5	96.4	91.9	99.3	99.6	103	100	105	104	95.8	104	98.5	96.6	99.1	106	100	105	107
CC12CCC(CC1=O)C2(C)C (stereo not drawn) [camphor-(+)]	> 10	> 10	> 10	> 10	> 10	0	0.15 ± 0.21	0	0	0	86	101	102	112	112	95.8 ± 3.6	104 ± 13	96.1 ± 0.42	98.2 ± 1.8	96.6 ± 14	101 ± 2.5	101 ± 6	99.8 ± 0.42	101 ± 5.5	99.8 ± 3.1	95.2 ± 8.1	90.5 ± 0.99	99.2 ± 3.3	93.8 ± 7.3	99.3 ± 6.2	96.9 ± 3.2	98.5 ± 2.7	99.2 ± 4.2	96.7 ± 2	101 ± 9.5
COc1cc(C2Oc3cc([C@H]4Oc5cc(O)cc(O)c5C(=O)[C@@H]4O)ccc3OC2CO)ccc1O (stereo partly drawn) [silibinin]	> 10	> 10	> 10	> 10	> 10	0	0	0	0	0	99.9	108	92.6	98.6	99.3	100	97.8	101	91.1	93.1	96	103	95.8	98.9	93.6	103	102	93	104	100	99.1	106	101	103	99.2
Cc1cc(-c2nc(C(=O)Nc3cn(C4CCOCC4)nc3C(N)=O)co2)ccn1	> 10	> 10	> 10	> 10	> 10	0	2.9	0	0	0	109	97	85.7	95	93.2	99.9	113	88.6	82.9	96.3	99	94.7	99.8	100	99.3	97.5	94.4	101	98.2	93.3	93.5	103	101	93	92.1
O=C(OCC(O)CO)c1ccccc1Nc1ccnc2c(C(F)(F)F)cccc12 (stereo not drawn) [floctafenine]	> 10	> 10	> 10	> 10	> 10	0.7	0	0	0	0	108	98.5	95.9	98.7	81.1	101	106	107	105	92.2	101	99.4	100	98.5	93.4	92.2	90.2	95.9	92.5	96.9	98.3	107	95.4	101	104
CC1Sc2c(C(=O)O)c(=O)c3cc(F)c(N4CCNCC4)cc3n21 (stereo not drawn) [ulifloxacin]	> 10	> 10	> 10	> 10	> 10	0	0.7	0.5	0	0	116	95.3	94	106	102	112	98.9	86.5	98.2	78.9	99.1	101	98.2	97.9	83.8	95.8	124	107	108	104	96.5	95.9	109	104	90.5
